From US20140194498A1, “POLYISOPRENYLATED TETRACYCLIC XANTHONE WITH ANTICANCER ACTIVITY” (Hong Kong Baptist University, priority 2013, published 2014) come the findings set out here.

Broadly, the IC50 is the concentration that inhibits the measured activity by half.

Series [1] deals with SMMC-7721 (human hepatocellular carcinoma). Description: cells. On the procedure: (§1) To determine the cytotoxicity of garciesculentone B, its IC50 values on HepG2, SMMC-7721, MCF-7, and MDA-MB-231 cell lines are measured. […] In addition, further study is taken to test whether garciesculentone B can exert effects on cell motility. A wound healing assay using ECA109 cells is performed in this regard.
(§2) Cytotoxicity Assay. Cytotoxic activitiy of garciesculentone B were evaluated by MTT assay using SMMC-7721 (human hepatocellular carcinoma), HepG2 (human hepatocellular carcinoma), MCF-7 (human breast adenocarcinoma), and MDA-MB-231 (human breast adenocarcinoma). Paclitaxel was used as positive control. The detailed methodology for cytotoxicity assay has already been described in Xia, Z.-X.; Zhang, D.-D.; Liang, S.; Lao, Y.-Z.; Zhang, H.; Tan, H.-S.; Chen, S.-L.; Wang, X.-H.; Xu, H.-X., Bioassay-Guided Isolation of Prenylated Xanthones and Polycyclic Acylphloroglucinols from the Leaves of Garcinia nujiangensis. Journal of Natural Products 2012.

For series [2], the system named is HepG2 (human hepatocellular carcinoma). On the procedure: as §1, §2
Series [3] relates to MCF-7 (human breast adenocarcinoma). The series is classed as cell-based. From the text: (§3) Cytotoxicity Assay. […] Paclitaxel was used as positive control. […] Journal of Natural Products 2012.
The test system of series [4] is MDA-MB-231 (human breast adenocarcinoma). The series is classed as cell-based.
Description: as §3

For series [5], the system named is human esophageal carcinoma (ECA109) cells. As to the kind of experiment: Wound healing assay. Format: cell-based. The method, then:
Wound healing assay. A wound healing assay was performed by using a modified procedure described previously in Jones, J. I.; Gockerman, A.; Busby, W. H., Jr.; Wright, G.; Clemmons, D. R., Insulin-like growth factor binding protein 1 stimulates cell migration and binds to the alpha 5 beta 1 integrin by means of its Arg-Gly-Asp sequence. Proc Natl Acad Sci USA 1993, 90 (22), 10553-7. Briefly, cells were plated in 24 wells plate at 70% confluence in conditioned medium. 24 hours after seeding the monolayers were wounded by scoring with a sterile plastic 20 μL micropipette tip, then rinsed several times with media to remove cell debris and then incubated in completed medium in the absence or presence of tested compounds (10 and 20 μg/mL) for various periods of time up to 36 hours. Cell migration into the wound surface was monitored by Olympus IX71 microscopy and digitally photographed.

Entries after “also recorded” stand apart in the source; their conditions may differ. Read-outs that look alike come from different tables or passages of the source.

As to `CC(=O)O[C@H]1C(=O)[C@@]2(C)[C@H]([C@H](OC(=O)c3ccccc3)[C@]3(O)C[C@H](OC(=O)[C@H](O)[C@@H](NC(=O)c4ccccc4)c4ccccc4)C(C)=C1C3(C)C)[C@]1(OC(C)=O)CO[C@@H]1C[C@@H]2O` [Palcitaxel, Paclitaxel, reference compound], the IC50 in series [1] (Homo sapiens, SMMC-7721, read-out: Cytotoxicity IC50, SMMC-7721) is 0.0091 µM.
Turning to garciesculentone B, the 50% inhibitory concentration (IC50) in series [1] was found to be 11.8 µM; in series [2], 31.4 µM; in series [3], 23.7 µM; in series [4], 33.9 µM. Further, in series [5] (10 and 20 μg/mL), the “Cell migration into the wound area (antimigration effect)” value is reported as “significant delay in cells moving into the wound area; also recorded: shows antimigration effect on ECA109 cells”. Also, in series [5] (up to 36 hours, control wound edges indistinguishable by 36 hours), the Wound closure entry is “do not migrate into and completely close the wound”.
